# Reference: PubChem BioAssay (NCI)
#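 Assay format: 96-well plates, 48-hour exposure. Here, GI50 denotes the concentration required for 50% inhibition of growth. TGI marks complete inhibition of growth.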
# Columns and labels:
# Assay in all cases: NCI tumour cell line growth inhibition, 48 h
# ACHN renal = test system: ACHN renal
# CAKI-1 renal = test system: CAKI-1 renal
# COLO 205 colon = test system: COLO 205 colon
# HCC-2998 colon = test system: HCC-2998 colon
# HCT-15 colon = test system: HCT-15 colon
# HT29 colon = test system: HT29 colon
# LOX IMVI melanoma = test system: LOX IMVI melanoma
# SK-MEL-2 melanoma = test system: SK-MEL-2 melanoma
# U251 CNS = test system: U251 CNS
# MCF7 breast = test system: MCF7 breast
SMILES,TGI (ACHN renal),TGI (CAKI-1 renal),TGI (COLO 205 colon),TGI (HCC-2998 colon),TGI (HCT-15 colon),TGI (HT29 colon),TGI (LOX IMVI melanoma),TGI (SK-MEL-2 melanoma),TGI (U251 CNS),TGI (MCF7 breast),GI50 (ACHN renal),GI50 (COLO 205 colon),GI50 (SK-MEL-2 melanoma),GI50 (U251 CNS),GI50 (CAKI-1 renal),GI50 (HCT-15 colon),GI50 (HT29 colon),GI50 (LOX IMVI melanoma),GI50 (HCC-2998 colon),GI50 (MCF7 breast)
CCC(C)C(N)C(=O)NC(CC(N)=O)C(=O)NC(CC(C)C)C(=O)NC(CCCCN)C(=O)NC(C)C(=O)NC(CC(C)C)C(=O)NC(C)C(=O)NC(C)C(=O)NC(CC(C)C)C(=O)NC(C)C(=O)NC(CCCCN)C(=O)NC(CCCCN)C(=O)NC(C(=O)NC(CC(C)C)C(N)=O)C(C)CC (centres undefined),27.2 µM,22.5 µM,32.1 µM,> 56.3 µM,31.8 µM,35.9 µM,35.3 µM,36.8 µM,30.9 µM,–,–,–,–,–,–,–,–,–,–,–
O=c1c2ccccc2[nH]n1Cc1ccccc1,> 100 µM,> 100 µM,> 100 µM,> 100 µM,> 100 µM,> 100 µM,> 100 µM,> 100 µM,> 100 µM,> 100 µM,–,–,–,–,–,–,–,–,–,–
COc1cc(OC)cc(-c2ccc(-c3ccc(C(=N)N)cn3)o2)c1,3.16 µM,–,3.27 µM,–,–,–,–,3.72 µM,3.02 µM,–,1.71 µM,1.62 µM,2.01 µM,1.62 µM,–,–,–,–,–,–
Cc1[nH]c(=O)[nH]c(=O)c1/C=C/C(=O)O (tested in a mixture with another compound),–,> 625 µM,> 625 µM,> 625 µM,> 625 µM,> 625 µM,> 625 µM,> 625 µM,> 625 µM,> 625 µM,–,–,–,–,–,–,–,–,–,–
OC1c2ccccc2CCC1CN1CCN(CCOC(c2ccc(F)cc2)c2ccc(F)cc2)CC1 (centres undefined),> 100 µM,> 100 µM,3.44 µM,18.9 µM,23.4 µM,–,27.1 µM,36.3 µM,28.3 µM,30.8 µM,–,–,–,–,–,–,–,–,–,–
CSCC[C@@H]1C(=O)N(C)[C@H](C(C)(C)C)N1C(=O)c1ccccc1,–,–,> 100 µM,> 100 µM,> 100 µM,> 100 µM,> 100 µM,> 100 µM,> 100 µM,> 100 µM,–,–,–,–,–,–,–,–,–,–
CSc1nc(C)cc(Nc2ccc(O)c(CN3CCOCC3)c2)n1,> 100 µM,> 100 µM,> 100 µM,> 100 µM,> 100 µM,> 100 µM,> 100 µM,> 100 µM,> 100 µM,> 100 µM,–,–,–,–,–,–,–,–,–,–
N#CC(N=Nc1ccccc1C(=O)O)C(N)=O (centres undefined),> 100 µM,> 100 µM,–,–,> 100 µM,> 100 µM,–,> 100 µM,> 100 µM,–,–,–,–,–,–,–,–,–,–,–
COc1cc2c3cc1Oc1c(O)c(OC)cc4c1C(Cc1ccc(O)c(c1)Oc1ccc(cc1)CC3N(C)CC2)N(C)CC4 (centres undefined),33.7 µM,32.4 µM,43.4 µM,13.6 µM,23.8 µM,18.9 µM,10.7 µM,38.4 µM,27.3 µM,–,–,–,–,–,–,–,–,–,–,–
CC(CC(N)C(=O)O)C(=O)O (centres undefined),> 100 µM,> 100 µM,–,–,> 100 µM,> 100 µM,> 100 µM,> 100 µM,> 100 µM,–,–,–,–,–,–,–,–,–,–,–
COc1cccc(/C=N/NC(=O)CSCC(=O)N/N=C/c2cccc(OC)c2OC)c1OC,> 100 µM,> 100 µM,> 100 µM,> 100 µM,> 100 µM,> 100 µM,–,> 100 µM,> 100 µM,> 100 µM,–,–,–,–,–,–,–,–,–,–
CN(C)c1ccc(/C=C/c2ccc(S(N)(=O)=O)cc2)cc1,33.6 µM,> 100 µM,99.2 µM,> 100 µM,74.1 µM,> 100 µM,> 100 µM,> 100 µM,31.7 µM,> 100 µM,13.6 µM,–,–,11.2 µM,50.3 µM,17.1 µM,30.8 µM,18.7 µM,–,–
CC1(C)[C@@H]2CC[C@]1(C)[C@H](OC(=O)/C=C/c1ccccc1)C2,31.9 µM,38 µM,31 µM,30.7 µM,33.4 µM,33.7 µM,37.1 µM,35 µM,32.4 µM,30.8 µM,–,–,–,–,–,–,–,–,–,–
COc1nc2cccc(C(O)c3ccccc3)c2nc1-c1ccccc1 (centres undefined),72.9 µM,63.8 µM,16.3 µM,–,26.5 µM,72.4 µM,22 µM,33.3 µM,16.8 µM,32 µM,–,–,–,–,–,–,–,–,–,–
O=C1C=CC2OC(c3ccccc3)C(O)C2O1 (centres undefined),–,13 µM,11 µM,10.9 µM,14.4 µM,35.2 µM,8.18 µM,6.63 µM,22.4 µM,16.8 µM,–,–,–,–,–,–,–,–,–,–
COc1cc(C(=O)O[C@H](C(=O)NCCCNC(=O)[C@@H](OC(=O)c2cc(OC)cc3c(C)cccc23)[C@]2(C)CO2)[C@]2(C)CO2)c2cccc(C)c2c1,–,0.205 µM,0.511 µM,0.224 µM,0.723 µM,–,< 0.01 µM,34.6 µM,0.0206 µM,0.219 µM,–,0.0593 µM,0.137 µM,< 0.01 µM,0.033 µM,0.0444 µM,< 0.0121 µM,< 0.01 µM,< 0.0198 µM,< 0.01 µM
CC(=O)c1[nH]c(NC(C)C)c(C(=S)Nc2ccccc2)c1N,> 100 µM,> 100 µM,> 100 µM,75.5 µM,> 100 µM,> 100 µM,37.8 µM,33 µM,–,42.2 µM,–,–,–,–,–,–,–,–,–,–
Cc1c[n+]2c3ccccc3c3ccccc3c2s1,> 100 µM,31.5 µM,26.1 µM,13.7 µM,> 100 µM,> 100 µM,41.9 µM,25.7 µM,12.3 µM,–,–,–,–,–,–,–,–,–,–,–
C=CCN1/C(=C(\C#N)c2nc3ccccc3[nH]2)Sc2c1nc[nH]c2=O,> 100 µM,> 100 µM,> 100 µM,> 100 µM,> 100 µM,> 100 µM,–,> 100 µM,> 100 µM,–,–,–,–,–,–,–,–,–,–,–
OCC1COc2cc(Cl)c(Cl)cc2O1 (centres undefined),> 10 µM,> 10 µM,> 10 µM,> 10 µM,> 10 µM,> 10 µM,> 10 µM,> 10 µM,> 10 µM,> 10 µM,–,–,–,–,–,–,–,–,–,–
COc1cc(C2c3cc4c(cc3[C@@H](Nc3cccc(CO)c3)C3COC(=O)[C@H]23)OCO4)cc(OC)c1O (some centres undefined),–,1.91 µM,3.72 µM,3.79 µM,2.86 µM,5.15 µM,3.74 µM,6.2 µM,–,26.3 µM,–,–,–,–,–,–,–,–,–,–
